This experiment has as its target T1, Human AMPK α2β2γ1 (Homo sapiens, UniProt O43741+P54619+P54646).
T1 construct: The full length cDNAs of human AMPK β2 (NM_005399.3) and human AMPK α2 (NM_006252.3); The full length cDNAs of human AMPK β2 (NM_005399.3); the full length cDNA of human AMPK γ1 (NM_002733.3); 6xHis (N); made in house; host or cells: Escherichia coli BL21 CodonPlus (DE3)-RIL (AMPK); BL21 Star (DE3) (CaMKK2)
Description: Test Example 2: AMPK activator evaluation, mobility-shift kinase assay after CaMKK2 phosphorylation. The experiment is classed as biochemical. To be noted: for EC150: compound concentration showing 150% relative to the control (100%); for Emax: maximum rate of increase in activity within the measurement range, control = 100%. Here is the method:
The full length cDNAs of human AMPK β2 (NM_005399.3) and human AMPK α2 (NM_006252.3) were inserted into the MCS1 and MCS2 of the pETDuet-1 vector to prepare a human AMPK β2 and human AMPK α2 (6× His tag at the 5′ terminus) expressing plasmid. The plasmid was cotransfected with an expression plasmid, in which the full length cDNA of human AMPK γ1 (NM_002733.3) had been inserted into pET28b(+), into BL21 CodonPlus (DE3)-RIL to obtain an expression strain. The expression strain was cultured in TB medium, followed by induction with 0.5 mM IPTG, and cultured at 25° C. for 3 hours and then harvested. After ultrasonication, supernatant was collected and applied to Histrap FF column (GE) and RESOUECE Q column (GE) to prepare 12.5 mg of purified sample containing three types of subunit from 1.8 L of broth.
An expression vector, in which the full length cDNA of human CAMKK β (NM_172226.1) had been inserted into pGEX-6P-3, was transfected into BL21 Star (DE3). The expression strain was cultured in TB medium, followed by induction with 0.5 mM IPTG, and cultured at 25° C. for 3 hours and then harvested. After ultrasonication, supernatant was collected and applied to GSTrap FF column (GE) to prepare 14 mg of GST-fused CAMKK β from 720 ml of broth.
Thus, phosphorylation treatment was carried out as pretreatment.
Human AMPK α2β2γ1 in an amount to give a conversion rate of approximately 10% by reaction for 2 hours, and CaMKK2 in an amount capable of sufficiently imparting activity to AMPK for one hour were mixed in a buffer solution consisting of a 50 mM HEPES-NaOH buffer solution (pH 7.0), 100 mM NaCl, 5 mM magnesium chloride, 0.1% bovine serum albumin, 0.2 mM sodium orthovanadate(V), 1 mM ethylene glycol-bis(2-aminoethyl ether)-N,N,N′,N′-tetraacetic acid (EGTA), 5 mM disodium β-glycerophosphate, 1 mM dithiothreitol and 0.2 mM ATP, and the obtained liquid was left to stand at 25° C. for 1 to 1.5 hours to sufficiently phosphorylate AMPK.
After that, to the enzyme liquid, which had been subjected to phosphorylation treatment, a compound dissolved in DMSO was added so as to have a 1% DMSO concentration. The obtained liquid was left to stand for 10 minutes.
To the liquid, a substrate solution consisting of a 50 mM HEPES-NaOH buffer solution (pH 7.0), 100 mM NaCl, 10 mM magnesium chloride, 0.1% bovine serum albumin, 0.2 mM sodium orthovanadate(V), 1 mM ethylene glycol-bis(2-aminoethyl ether)-N,N,N′,N′-tetraacetic acid (EGTA), 5 mM disodium β-glycerophosphate, 2 mM dithiothreitol, 0.4 mM ATP and 3 μM FL-Peptide 7 (manufactured by Caliper Life Sciences, Inc.) was added in equal amount (10 μl in total). The obtained liquid was allowed to react at 25° C. for 2 hours, and 10 μl of 20 mM EDTA was then added thereto to stop the reaction.
To detect phosphorylated fluorescent substrates, the reaction liquid was applied to a measuring device, LabChip EZ Reader II manufactured by Caliper Life Science, Inc., for detecting fluorescence by using differences in mobility due to differences in charge. The setting conditions for the device were pressure, −1.5 PSI; upstream voltage, −2250 V; downstream voltage, −400 V; post sample buffer sip time, 40 seconds; final delay, 120 seconds; and peak order, Product First.
A conversion rate was calculated from the peak heights of the resulting substrate and product. The conversion rate when not containing a compound was used as a control, and a concentration dependent curve was made by plotting the rate of increase in activity to the control at each concentration of a compound.

T1 sequence (P54646 whole entry): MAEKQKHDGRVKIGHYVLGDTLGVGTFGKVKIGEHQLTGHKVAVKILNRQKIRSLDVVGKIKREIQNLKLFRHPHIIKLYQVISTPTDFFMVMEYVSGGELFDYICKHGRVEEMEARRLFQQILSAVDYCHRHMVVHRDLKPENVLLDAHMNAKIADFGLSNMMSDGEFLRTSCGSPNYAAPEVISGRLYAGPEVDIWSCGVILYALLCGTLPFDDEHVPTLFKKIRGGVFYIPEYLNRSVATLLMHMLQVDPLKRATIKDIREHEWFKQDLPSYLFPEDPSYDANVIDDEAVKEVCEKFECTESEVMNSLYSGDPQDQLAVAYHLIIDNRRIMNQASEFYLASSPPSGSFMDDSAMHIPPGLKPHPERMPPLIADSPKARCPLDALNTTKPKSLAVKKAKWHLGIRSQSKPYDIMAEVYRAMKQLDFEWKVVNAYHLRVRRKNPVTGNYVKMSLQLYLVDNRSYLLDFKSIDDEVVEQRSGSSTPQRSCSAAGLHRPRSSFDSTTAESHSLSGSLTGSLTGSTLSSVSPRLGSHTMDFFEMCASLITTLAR
T1 sequence (O43741 whole entry): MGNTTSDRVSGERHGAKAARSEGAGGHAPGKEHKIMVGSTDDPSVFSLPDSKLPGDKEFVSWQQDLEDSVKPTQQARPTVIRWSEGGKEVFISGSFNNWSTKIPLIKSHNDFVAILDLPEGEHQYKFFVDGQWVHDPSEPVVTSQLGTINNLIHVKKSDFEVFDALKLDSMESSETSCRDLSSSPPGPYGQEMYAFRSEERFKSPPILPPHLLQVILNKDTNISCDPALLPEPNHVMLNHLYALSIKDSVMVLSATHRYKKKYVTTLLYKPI
T1 sequence (P54619 whole entry): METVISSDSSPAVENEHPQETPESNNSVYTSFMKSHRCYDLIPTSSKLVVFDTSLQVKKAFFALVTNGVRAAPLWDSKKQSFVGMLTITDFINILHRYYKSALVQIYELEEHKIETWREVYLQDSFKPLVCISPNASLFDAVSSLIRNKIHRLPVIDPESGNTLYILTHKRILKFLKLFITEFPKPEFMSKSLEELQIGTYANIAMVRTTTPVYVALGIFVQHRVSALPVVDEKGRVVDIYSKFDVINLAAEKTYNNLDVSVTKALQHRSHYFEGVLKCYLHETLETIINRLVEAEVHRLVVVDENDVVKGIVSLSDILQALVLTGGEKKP

As to `O=C(Nc1nc2nc(O[C@@H]3CO[C@H]4[C@@H]3OC[C@H]4O)[nH]c2cc1Cl)c1ccc2ccccc2c1` [Compound I-1-80], the EC150 is given as 880 nM and the Emax worked out at 397%.
With `OCCOc1cc(F)c(CNc2nc3nc(O[C@@H]4CO[C@H]5[C@@H]4OC[C@H]5O)[nH]c3cc2Cl)c(F)c1` [Compound I-1-15], the EC150 came out at 5.8 nM and the Emax came to 894%.
The corresponding values for `O[C@@H]1CO[C@H]2[C@@H]1OC[C@H]2Oc1nc2nc(NC3CCc4ccccc43)c(Cl)cc2[nH]1` (some centres unmarked) [Compound I-1-8] are 67 nM and 617%.
For `Cc1cccc(F)c1CNc1nc2nc(O[C@@H]3CO[C@H]4[C@@H]3OC[C@H]4O)[nH]c2cc1Cl` [Compound I-1-6], the EC150 is 21 nM and the Emax stood at 496%.
The corresponding values for `O[C@@H]1CO[C@H]2[C@@H]1OC[C@H]2Oc1nc2nc(NCc3c(F)cc(C4=CCNCC4)cc3F)c(Cl)cc2[nH]1` [Compound I-2-209] are 22 nM and 558%.
The corresponding values for `CCOCCOc1cc(F)c2c(c1)CCC2Nc1nc2nc(O[C@@H]3CO[C@H]4[C@@H]3OC[C@H]4O)[nH]c2cc1Cl` (some centres unmarked) [Compound I-2-223] are 2.8 nM and 649%.
For `CCc1ccc(CNc2nc3nc(O[C@@H]4CO[C@H]5[C@@H]4OC[C@H]5O)[nH]c3cc2Cl)s1` [Compound I-2-75] the same measures were 26 nM and 542%.
On to `COCCOc1cc(F)c2c(c1)CC[C@@H]2Nc1nc2nc(O[C@@H]3CO[C@H]4[C@@H]3OC[C@H]4O)[nH]c2cc1Cl` [Compound I-2-220], for which the EC150 is given as 1.1 nM and the Emax was 669%.
With `COCCOc1cc(F)c(CNc2nc3nc(O[C@@H]4CO[C@H]5[C@@H]4OC[C@H]5O)[nH]c3cc2Cl)c(F)c1` [Compound I-1-13], the EC150 is reported as 17 nM and the Emax was determined as 838%.
For `CC(C)(O)CCc1cc(F)c(CNc2nc3nc(O[C@@H]4CO[C@H]5[C@@H]4OC[C@H]5O)[nH]c3cc2Cl)c(F)c1` [Compound I-2-233] the same measures were 9.3 nM and 507%.

What is called Emax is the maximal effect, on the per cent scale that the assay sets.
